From patent US11267852B2, “Cell lines for screening odorant and aroma receptors” (Firmenich SA, priority 2015, dated 2022)

Legend:
[1] = target: T1, OR1A1 (Homo sapiens, UniProt Q9P1Q5); assay: cell-based odorant assay, cAMP increase (HTRF), OR1A1; conditions: modified RTP1 HEK293T cell line compared to unmodified control cell line
T1 construct: expressed in transfected cells
T1 sequence (Q9P1Q5 1-309): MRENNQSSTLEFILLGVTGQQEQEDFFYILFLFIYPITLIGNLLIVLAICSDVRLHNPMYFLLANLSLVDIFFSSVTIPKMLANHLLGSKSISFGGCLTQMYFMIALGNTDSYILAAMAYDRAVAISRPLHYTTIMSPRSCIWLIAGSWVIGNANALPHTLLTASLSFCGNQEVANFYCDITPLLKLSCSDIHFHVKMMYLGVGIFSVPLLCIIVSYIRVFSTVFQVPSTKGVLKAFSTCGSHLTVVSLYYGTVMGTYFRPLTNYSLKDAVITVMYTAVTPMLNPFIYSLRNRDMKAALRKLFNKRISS

[2] = tested on: Olfr740; assay: cell-based odorant assay, cAMP increase (HTRF), Olfr740; design: species or system mouse
Method: (§1) Functional dose-response experiments were performed in order to evaluate the level of functional enhancement of activity of odorant receptors in the modified cell line. Odorant receptors were modified at their N-terminus with short polypeptide sequences or tags [e.g. Flag (SEQ ID NO: 15), Rho (SEQ ID NO: 17; 20 first amino acids of the bovine rhodopsin receptor), or Lucy (SEQ ID NO: 19)], transiently expressed in WT or modified HEK293T cells, and stimulated with odorant compounds to determine the activity of the receptors. FIGS. 7 and 8) Using a cell-based odorant binding assay, the activity of Olfr741 (SEQ ID NO: 4) and Olfr742 (SEQ ID NO: 6) to indole was tested in the engineered RTP1 cell line and compared to HEK293T lacking RTP1 protein expression. Odorant receptors were transfected into both cell lines and exposed to increasing concentrations of indole. Odorant-induced activity was detected by measuring the level of cAMP increase in the cytosol using an HTRF based kit (CisBio, cAMP dynamic 2 kit, cat #62AM4PEJ). FIGS. 9 and 10) Using the same cell-based odorant binding assay, the activity of Olfr96 (SEQ ID NO: 8) and OR11A1 (SEQ ID NO: 10) to vulcanolide was tested in the engineered RTP1 expressing cell line and compared to HEK293T lacking RTP1 protein expression. The activity of Olfr740 (SEQ ID NO: 12) to indole was also tested in both cellular backgrounds. […]

[3] = tested on: Olfr742; assay: cell-based odorant assay, cAMP increase (HTRF), Olfr742; design: species or system mouse
Method: as §1

[4] = tested on: Olfr741; assay: cell-based odorant assay, cAMP increase (HTRF), Olfr741; design: species or system mouse
Method: as §1

[5] = target: T2, OR11A1 (Homo sapiens, UniProt Q9GZK7); assay: cell-based odorant assay, cAMP increase (HTRF), OR11A1
T2 construct: expressed in transfected cells
T2 sequence (Q9GZK7 1-315): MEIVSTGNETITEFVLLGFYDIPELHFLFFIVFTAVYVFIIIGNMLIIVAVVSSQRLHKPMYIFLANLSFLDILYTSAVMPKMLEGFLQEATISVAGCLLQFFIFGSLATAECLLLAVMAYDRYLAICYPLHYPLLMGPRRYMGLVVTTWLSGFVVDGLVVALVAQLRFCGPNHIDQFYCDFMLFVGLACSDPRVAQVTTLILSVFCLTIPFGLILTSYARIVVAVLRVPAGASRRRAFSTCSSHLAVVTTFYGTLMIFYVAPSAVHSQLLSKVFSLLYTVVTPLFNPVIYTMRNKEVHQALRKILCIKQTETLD
Method: as §1

[6] = tested on: Olfr96; assay: cell-based odorant assay, cAMP increase (HTRF), Olfr96; design: species or system mouse
Method: as §1

[7] = modified RTP1 HEK293T cell line, increasing concentrations
[8] = unmodified control HEK293T lacking RTP1 expression

`C=C(C)C1CC=C(C)C(=O)C1` (stereo not drawn) [carvone-(−)] was tested, and the “receptor activity (cAMP increase), dose-response” value (“receptor activity (cAMP increase)” for short) [1] was “more potent dose-dependent increase of receptor activity”.

For `c1ccc2[nH]ccc2c1` [indole], the “receptor activity (cAMP increase)” value [2, 7] was “dose-dependent increase of receptor activity”, the “receptor activity (cAMP increase)” value [2, 8] was “not in the unmodified control cell line” and the “receptor activity (cAMP increase)” value [3, 7] was “dose-dependent increase of receptor activity”. The “receptor activity (cAMP increase)” value [3, 8] was “not in the unmodified control cell line”, the “receptor activity (cAMP increase)” value [4, 7] was “dose-dependent increase of receptor activity” and the “receptor activity (cAMP increase)” value [4, 8] was “not in the unmodified control cell line”.

For `Cc1cc2c(cc1C=O)C(C)(C)[C@@H](C)[C@H](C)C2(C)C` [vulcanolide], the “receptor activity (cAMP increase)” value [5, 7] was “dose-dependent increase of receptor activity”, the “receptor activity (cAMP increase)” value [5, 8] was “not in the unmodified control cell line” and the “receptor activity (cAMP increase)” value [6, 7] was “dose-dependent increase of receptor activity”. For the same compound, the “receptor activity (cAMP increase)” value [6, 8] was “not in the unmodified control cell line”.
